# From ChEMBL document CHEMBL1201862, “PubChem BioAssay data set” (2004)
#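 Five concentrations, 48 hours, 96-well plates. Abbreviation: GI50, concentration required for 50% inhibition of growth.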 Active and inactive are the calls of the source. Rule as the data show it: active = GI50 up to about 1.1 µM and inactive = higher.
# Columns and labels:
# Test in all cases: NCI-60 cell line screen, 48 h
# M19-MEL = test system: M19-MEL
# DLD-1 = test system: DLD-1
# RXF 631 = test system: RXF 631
# SNB-78 = test system: SNB-78
# KM-20L2 = test system: KM-20L2
# XF498 = test system: XF498
# HOP-18 = test system: HOP-18
# DU-145 = test system: DU-145
# MDA-MB-231 = test system: MDA-MB-231
SMILES,GI50 (M19-MEL),GI50 (DLD-1),GI50 (RXF 631),GI50 (SNB-78),GI50 (KM-20L2),GI50 (XF498),GI50 (HOP-18),GI50 (DU-145),GI50 (MDA-MB-231)
O=[N+]([O-])c1ccc(-c2ccc(-c3csc(Nc4ccccn4)n3)o2)cc1,58.6 µM (inactive),> 100 µM (inactive),35.4 µM (inactive),28.2 µM (inactive),> 100 µM (inactive),22.7 µM (inactive),,,
CCN1C(=O)N2C(OC)c3ccccc3C(Br)C2(OC)C1=O (stereo not drawn),> 100 µM (inactive),> 100 µM (inactive),> 100 µM (inactive),,> 100 µM (inactive),,,,
CCC1=C(C[C@H]2NCCc3cc(OC)c(OC)cc32)C[C@H]2c3cc(OC)c(OC)cc3CCN2C1,0.0251 µM (active),0.0296 µM (active),0.0412 µM (active),0.0388 µM (active),0.0288 µM (active),,0.667 µM (active),,
Cn1c(=O)c2c(nc3n2C(CCl)CO3)n(C)c1=O (stereo not drawn),> 100 µM (inactive),> 100 µM (inactive),> 100 µM (inactive),> 100 µM (inactive),,,> 100 µM (inactive),,
CC(C)(C)c1ccc(OCCOCCOc2ccc(C(C)(C)C)cc2S(N)(=O)=O)c(S(N)(=O)=O)c1,> 100 µM (inactive),99.5 µM (inactive),> 100 µM (inactive),> 100 µM (inactive),,,> 100 µM (inactive),,
C/C(CC(=O)Nc1cc(Cl)c(Cl)cc1Cl)=N\NC(N)=O,> 100 µM (inactive),> 100 µM (inactive),> 100 µM (inactive),,> 100 µM (inactive),> 100 µM (inactive),,,
COC(=O)c1c(-c2ccccc2)cc2c3cc(-c4ccccc4)c(C(=O)OC)n3c3ccccc3n12,> 100 µM (inactive),> 100 µM (inactive),> 100 µM (inactive),> 100 µM (inactive),> 100 µM (inactive),> 100 µM (inactive),> 100 µM (inactive),,
C/C(=N\NC(=O)C(N)=O)c1c(O)cc(C)oc1=O,> 100 µM (inactive),> 100 µM (inactive),> 100 µM (inactive),> 100 µM (inactive),> 100 µM (inactive),,,,
CC(=O)NNc1nc(C)c(C(=O)/C=C/c2cccc([N+](=O)[O-])c2)s1,> 100 µM (inactive),> 100 µM (inactive),> 100 µM (inactive),> 100 µM (inactive),> 100 µM (inactive),,> 100 µM (inactive),,
Cc1c(N)nc(C2CC(=O)N2CC(N)C(N)=O)nc1C(=O)NC(C(=O)NC(C)C(O)C(C)C(=O)NC(C(=O)NCCc1nc(-c2nc(C(=O)NCCNCC(C)O)cs2)cs1)C(C)O)C(OC1OC(CO)C(O)C(O)C1OC1OC(CO)C(O)C(OC(N)=O)C1O)c1c[nH]cn1 (stereo not drawn),5.04 µM (inactive),32.4 µM (inactive),,> 89.3 µM (inactive),58.6 µM (inactive),1.35 µM (inactive),13.4 µM (inactive),7.87 µM (inactive),> 50 µM (inactive)
COC(=O)C1=C(\O)C[C@@]2(C)CC[C@@H](C(=O)OC)C2C/C=C\1C(=O)OC (stereo partly drawn),> 100 µM (inactive),> 100 µM (inactive),> 100 µM (inactive),> 100 µM (inactive),> 100 µM (inactive),,> 100 µM (inactive),,
Nc1ccc(Cn2ccc3c4c(N)nc(N)nc4ccc32)cc1,0.0834 µM (active),< 0.01 µM (active),,7.35 µM (inactive),< 0.01 µM (active),1.5 µM (inactive),10.2 µM (inactive),0.0123 µM (active),1.06 µM (active)
COc1ccc(S(=O)(=O)N/N=C/CN2C(=O)c3ccccc3C2=O)cc1OC,> 100 µM (inactive),> 100 µM (inactive),> 100 µM (inactive),,> 100 µM (inactive),> 100 µM (inactive),,,
CCOC(=O)NC(=O)c1cn(CCCCCCOC(=O)NCCCCCCNC(=O)OCCCCCCn2cc(C(=O)NC(=O)OCC)c(=O)[nH]c2=O)c(=O)[nH]c1=O,> 100 µM (inactive),> 100 µM (inactive),> 100 µM (inactive),,> 100 µM (inactive),,> 100 µM (inactive),,
CCOC(=O)C1C=C2O[C@@H]3OC4(CCCCC4)O[C@@H]3C2[C@H]2C(=O)C=CC(=O)[C@@]12C(=O)OC (stereo partly drawn),16 µM (inactive),16.6 µM (inactive),16.3 µM (inactive),6.49 µM (inactive),14.5 µM (inactive),7.29 µM (inactive),15.7 µM (inactive),,
